One data set concerns Panc-1 cells. Description: Cell viability assay (MTT) in Panc-1 cells. As to conditions: Homo sapiens, antiproliferative activity, 72 h. Format: cell-based. Here is the method: Panc-1 cells are maintained in RPMI 1640 (Invitrogen 11875) media supplemented with 10% FBS, 1% Penicillin/Streptomycin and 1% Glutamax-1. Cells were plated in 96-well plates at 25×10^4 cells/ml. After 24 hours, compounds were added at 9, 3× dilutions in triplicate from 100 uM final concentration in the appropriate growth media. Plates were incubated for 72 hours at 37° C. in a 5% CO2/95% air humidified atmosphere after which time the media was removed and MTT was added in RPMI phenol red free media. The MTT was removed after 3 hours and formazan crystals were solubilized with 200 μL of isopropanol. Plates were read on a Molecular Devices SpectraMax i3 spectrophotometer at 570 nm for formazan and 690 nm for background subtraction. EC50 values were calculated by fitting the data in GraphPad Prism software.

The test system of another data set is MIA PaCa-2 cells. As to the kind of experiment: Cell viability assay (MTT) in MIA PaCa-2 cells. As to conditions: Homo sapiens, antiproliferative activity, 72 h. Format: cell-based. The method, then: MIA PaCa-2 cells (CRL-1420, ATCC) were maintained in DMEM media supplemented with 10% FBS, 2.5% HS, 1% GlutaMAX, 1% sodium pyruvate, 100 U/mL penicillin, and 100 μg/mL streptomycin. Cell culture media and additives were purchased from Gibco. Cells were plated in 96-well plates at |1−2.5|×10^4 cells per well in the DMEM growth media. One microliter of a 2-fold serially diluted compound solution in DMSO (Sigma) starting at 20 mM (100 μM final concentration) was added to each well. The final volume in each well was 200 μL, yielding a final DMSO concentration of 0.5%. Control wells contained 0.5% DMSO (100% viability) or 25% DMSO (background) and all reactions were done in triplicate. The plate was incubated for 72 h at 37° C. in a 5% CO2/95% air humidified atmosphere.
Measurement of cell viability was carried out using a modified method of Mosmann based on 3-(4,5-dimethylthiazol-2-yl)-2,5-diphenyltetrazolium bromide (MTT, Sigma). MTT solution was prepared fresh at 1 mg/mL in serum-free and phenol red-free RPMI 1640 media. After 200 μL of MTT solution was added to each well, the plate was incubated as described above for 3 h. The MTT solution was removed, and the formazan crystals were solubilized with 200 μL of isopropanol. The plate was read on a SpectraMax i3 spectrophotometer (Molecular Devices) at 570 nm for formazan and 650 nm for background subtraction. EC50 values were calculated by fitting the data in GraphPad Prism software. EC50 values were determined in triplicate.

Data set [1] in a line: Plasma stability assay, human plasma. Particulars: 37° C., 24 h. Format: in vitro ADME. Here is the method: (§1) The plasma stability assay was performed in triplicate by incubating a compound in normal mouse and human plasma at 37° C. At 0, 1, 3, 6, and 24 h, aliquots of the plasma mixture were taken and quenched with 3 volumes of acetonitrile containing an appropriate internal standard. The samples were then vortexed and centrifuged at 14,000 rpm for 5 min. The supernatants were collected and analyzed by LC-MS/MS to determine the remaining percentage at various time points.
(§2) Quantification and analysis of compounds in biological samples were carried out on an AB Sciex QTrap 5500 mass spectrometer coupled with an Agilent 1260 Infinity HPLC. The chromatographic separation of compounds was achieved using a Phenomenex Kinetex C18 column (50×2.1 mm, 2.6 μm), and MS/MS analysis was conducted using an ESI ion source with MRM detection. The MS/MS detection parameters including declustering potential (DP), entrance potential (EP), collision energy (CE), and collision cell exit potential (CXP) were optimized for each compound.

Data set [2] is described as follows: Microsomal stability assay, human liver microsomes. Format: in vitro ADME. Particulars: pH 7.4; human liver microsomes 0.5 mg/mL, 1 mM NADPH, 1 μM compound; read-out: Microsomal Stability t1/2 Human. The method, then:
(§3) The in vitro microsomal stability assay was conducted in triplicate in mouse and human liver microsomal systems. In a typical incubation, a compound (typically 1 μM final concentration) was spiked into the reaction mixture containing 0.5 mg/mL of liver microsomal protein and 1 mM of NADPH in 0.1 M potassium phosphate buffer (pH 7.4) at 37° C. At various time points, 1 volume of reaction aliquot was taken and quenched with 3 volumes of acetonitrile with an appropriate internal standard. The samples were then vortexed and centrifuged at 14,000 rpm for 5 min. The supernatants were collected and analyzed by LC-MS/MS to determine the in vitro metabolic half-life (t1/2) and intrinsic clearance (CLint). Verapamil was used as a positive control.
as §2

Data set [3] is described as follows: Microsomal stability assay, mouse liver microsomes. The class given is in vitro ADME. As to conditions: pH 7.4; mouse liver microsomes 0.5 mg/mL, 1 mM NADPH, 1 μM compound; read-out: Microsomal Stability t1/2 Mouse. Here is the method:
as §3, §2

Data set [4] can be described thus: Plasma stability assay, mouse plasma. Format: in vitro ADME. As to conditions: 37° C., 24 h. Here is the method:
as §1, §2

pEC50: −log10 of the molar value.

The values below come from US10357477B2, “Anticancer compounds” (REGENTS OF THE UNIVERSITY OF MINNESOTA, priority 2016, dated 2019).

As for `CNC(=O)c1cccc(Cn2nc(C)c(NC(=O)c3ccc(COc4ccc(OC)cc4)cc3)c2C)c1` [Compound D4c, 3-((4-(4-((4-Methoxyphenoxy)methyl)benzamido)-3,5-dimethyl-1H-pyrazol-1-yl)methyl)-N-methylbenzamide], the pEC50 in the data set on Panc-1 cells was 4.32; with MIA PaCa-2 cells, 5.10.

Regarding `CNC(=O)c1cccc(Cn2nc(C)c(NC(=O)c3ccc(COc4ccccc4Cl)cc3)c2C)c1` [Compound D5a, 3-((4-(4-((2-Chlorophenoxy)methyl)benzamido)-3,5-dimethyl-1H-pyrazol-1-yl)methyl)-N-methylbenzamide], the figures for the pEC50 with Panc-1 cells and in the data set on MIA PaCa-2 cells were 5.00 and 5.20, respectively.

With `CNC(=O)c1cccc(Cn2nc(C)c(NC(=O)c3ccc(COc4cccc(Cl)c4)cc3)c2C)c1` [Compound D5b, 3-((4-(4-((3-Chlorophenoxy)methyl)benzamido)-3,5-dimethyl-1H-pyrazol-1-yl)methyl)-N-methylbenzamide], the figures for the negative-log EC50 (pEC50) in the data set with Panc-1 cells and with MIA PaCa-2 cells were 7.42 and 5.23, respectively.

For `CNC(=O)c1cccc(Cn2nc(C)c(NC(=O)c3ccc(COc4ccc(Cl)cc4)cc3)c2C)c1` [Compound D5c, 3-((4-(4-((4-Chlorophenoxy)methyl)benzamido)-3,5-dimethyl-1H-pyrazol-1-yl)methyl)-N-methylbenzamide], the pEC50 was 5.70 in the data set with Panc-1 cells and 5.38 with MIA PaCa-2 cells.

Regarding `CNC(=O)c1cccc(Cn2nc(C)c(NC(=O)c3ccc(COc4ccccc4F)cc3)c2C)c1` [Compound D6a, 3-((4-(4-((2-Fluorophenoxy)methyl)benzamido)-3,5-dimethyl-1H-pyrazol-1-yl)methyl)-N-methylbenzamide], the pEC50 is 5.52 in the data set on Panc-1 cells and 5.25 with MIA PaCa-2 cells.

With `CNC(=O)c1cccc(Cn2nc(C)c(NC(=O)c3ccc(COc4cccc(F)c4)cc3)c2C)c1` [Compound D6b, 3-((4-(4-((3-Fluorophenoxy)methyl)benzamido)-3,5-dimethyl-1H-pyrazol-1-yl)methyl)-N-methylbenzamide], the pEC50 in the data set with Panc-1 cells was 6.68; with MIA PaCa-2 cells it was 5.11.

Consider `CNC(=O)c1cccc(Cn2nc(C)c(NC(=O)c3ccc(COc4ccc(F)cc4)cc3)c2C)c1` [Compound D6c, 3-((4-(4-((4-Fluorophenoxy)methyl)benzamido)-3,5-dimethyl-1H-pyrazol-1-yl)methyl)-N-methylbenzamide], for which the negative-log EC50 (pEC50) in the data set on Panc-1 cells is 5.16; in the data set with MIA PaCa-2 cells it was 5.51.

For the molecule `CNC(=O)c1cccc(Cn2nc(C)c(NC(=O)c3ccc(COc4ccccc4C#N)cc3)c2C)c1` [Compound D7a, 3-((4-(4-((2-Cyanophenoxy)methyl)benzamido)-3,5-dimethyl-1H-pyrazol-1-yl)methyl)-N-methylbenzamide], the negative logarithm of the EC50 (pEC50) was 5.07 with Panc-1 cells and 4.92 with MIA PaCa-2 cells.

`CNC(=O)c1cccc(Cn2nc(C)c(NC(=O)c3ccc(COc4ccc(C#N)cc4)cc3)c2C)c1` [Compound D7c, 3-((4-(4-((4-Cyanophenoxy)methyl)benzamido)-3,5-dimethyl-1H-pyrazol-1-yl)methyl)-N-methylbenzamide]: the pEC50 in the data set on Panc-1 cells is 4.66; in the data set on MIA PaCa-2 cells, 5.25.

With `CNC(=O)c1cccc(Cn2nc(C)c(NC(=O)c3ccc(COc4ccccc4C(F)(F)F)cc3)c2C)c1` [Compound D9a, 3-((3,5-Dimethyl-4-(4-((2-(trifluoromethyl)phenoxy)methyl)benzamido)-1H-pyrazol-1-yl)methyl)-N-methylbenzamide], the negative-log EC50 (pEC50) in the data set on Panc-1 cells is 6.36; in the data set on MIA PaCa-2 cells, 5.00.

As for `CNC(=O)c1cccc(Cn2nc(C)c(NC(=O)c3ccc(COc4cccc(C(F)(F)F)c4)cc3)c2C)c1` [Compound D9b, 3-((3,5-Dimethyl-4-(4-((3-(trifluoromethyl)phenoxy)-methyl)benzamido)-1H-pyrazol-1-yl)methyl)-N-methylbenzamide], the pEC50 in the data set with Panc-1 cells is 6.12; with MIA PaCa-2 cells, 5.64.

As to `CNC(=O)c1cncc(Cn2nc(C)c(NC(=O)c3ccc(COc4ccc(C(F)(F)F)cc4)cc3)c2C)c1` [Compound E3a, 5-((3,5-Dimethyl-4-(4-((4-(trifluoromethyl)phenoxy)methyl)benzamido)-1H-pyrazol-1-yl)methyl)-N-methylnicotinamide], the “Plasma Stability (% remaining, 6 h/24 h) Human” value in data set [1] was “—/94%”. Also, the half-life at 1 μM in data set [2] worked out at 1.37 h; in data set [3], 2.4 h. In the data set on MIA PaCa-2 cells, this molecule showed a negative logarithm of the EC50 (pEC50) of 5.07. Moreover, the “Plasma Stability (% remaining, 6 h/24 h) Mouse” value in data set [4] is “—/100%”.

`CNC(=O)c1cncc(Cn2nc(C)c(NC(=O)c3ccc(COc4ccc(C(F)(F)F)cc4C)cc3)c2C)c1` [Compound E3b, 5-((3,5-Dimethyl-4-(4-((2-methyl-4-(trifluoromethyl)phenoxy)methyl)benzamido)-1H-pyrazol-1-yl)methyl)-N-methylnicotinamide]: the “Plasma Stability (% remaining, 6 h/24 h) Human” value in data set [1] is given as “—/98%”. The values for the half-life at 1 μM in data set [2] and in data set [3] were 1.23 h and 2.32 h, respectively. In addition, in the data set with MIA PaCa-2 cells, the pEC50 was 5.12. Besides, the “Plasma Stability (% remaining, 6 h/24 h) Mouse” value in data set [4] was “—/100%”.

Regarding `CNC(=O)c1ccnc(Cn2nc(C)c(NC(=O)c3ccc(COc4ccc(C(F)(F)F)cc4)cc3)c2C)c1` [Compound E4a, 2-((3,5-Dimethyl-4-(4-((4-(trifluoromethyl)phenoxy)methyl)benzamido)-1H-pyrazol-1-yl)methyl)-N-methylisonicotinamide], in data set [1], the “Plasma Stability (% remaining, 6 h/24 h) Human” value was “—/97%”. Moreover, the half-life at 1 μM came to 1.08 h in data set [2] and 2.52 h in data set [3]. In addition, the pEC50 in the data set on MIA PaCa-2 cells is 4.89. For the same molecule, the “Plasma Stability (% remaining, 6 h/24 h) Mouse” value in data set [4] was “—/98%”.

As to `CNC(=O)c1ccnc(Cn2nc(C)c(NC(=O)c3ccc(COc4ccc(C(F)(F)F)cc4C)cc3)c2C)c1` [Compound E4b, 2-((3,5-Dimethyl-4-(4-((2-methyl-4-(trifluoromethyl)phenoxy)methyl)benzamido)-1H-pyrazol-1-yl)methyl)-N-methylisonicotinamide], the “Plasma Stability (% remaining, 6 h/24 h) Human” value in data set [1] is recorded as “—/98%”. Also, the half-life at 1 μM in data set [2] amounted to 0.95 h; in data set [3], 2.1 h. Besides, in the data set with MIA PaCa-2 cells, the pEC50 is 5.31. Besides, the “Plasma Stability (% remaining, 6 h/24 h) Mouse” value in data set [4] is listed as “—/99%”.
